“Also recorded” adds a separate entry of the source. Bridges are numbered along the chain shown (N, C = ends). The star is where a group is joined. Biotin = O=C1N[C@H]2[C@H](CS[C@H]2CCCCC(=O)*)N1

In assay [1] the test system is Trypanosoma brucei brucei. Briefly: In vitro trypanocidal assay, T. brucei brucei. Format: cell-based. The conditions noted are these: for effect on trypanocidal activity of TNF-α / tip peptide: preincubation or cotreatment with the substance; for % inhibition of trypanocidal activity: lectin 10 μg/ml; for Δ: % inhibition of trypanocidal activity by the addition of the p55 hTNFα receptor protein: p55 5 μg/ml. The method, then:
The Trypanosoma brucei brucei AnTat 1.1 (EATRO 1125) pleomorphic bloodstream form was kindly provided to us by Dr. N. Van Meirvenne of the Institute for Tropical Medecine, Antwerp, Belgium, and the Trypanosoma brucei rhodesiense Trp 11 pleomorphic bloodstream form was kindly provided to us by Dr. E. Bajyana Songa (Dept. Molecular Biology, Free University of Brussels, Belgium)
After 5 h of incubation, the number of live (=moving) parasites was assessed (counting chamber) and compared the control wells in which only incubation medium was added to the trypanosomes. […] All treatments were done in quadruplicate and all reported in vitro trypanolysis experiments were repeated at least 3 times.

A further assay concerns L929 cells. Kind of assay: L929 cell killing (cytotoxic/cytolytic/tumoricidal) assay. Type of assay: cell-based, mouse. The conditions noted are these: for effect on mTNF-α tumoricidal (cytolytic) activity: preincubation of mTNF-α with the substance; for Δ: % inhibition of tumoricidal activity by the addition of the p55 hTNFα receptor protein: p55 5 μg/ml. The method, then:
L929 fibrosarcoma cells were obtained from the Rega Institute, Leuven, Belgium.
After 18 h of culture at 37° C., viability of the cell cultures was assessed by dye uptake analysis. […] The plates were read spectrophotometrically at 577 nm with a Titertek multiscan MCC340 ELISA Reader (Flow Laboratories, McLean, Va.).

In assay [2] the test system is human interleukin-6 (IL6). Kind of assay: IL6 production by hMVECb cells. Type of assay: cell-based. The conditions noted are these: 24 hours. The method, then: Subsequently, the IL6 concentration in the supernatant of the cells was assessed using a commercially available hIL6 ELISA kit (Medgenix, Belgium).
Assay [3] concerns human interleukin 8 (IL8). Kind of assay: IL8 production by hMVECb cells. Format: cell-based.

For the molecule `[Cl-].[Li+]` [LiCl, reference compound], the “potentiation of trypanocidal effect of TNF-α” value in assay [1] (1 μg/ml of LiCl co-treatment) is 100 fold. Moreover, the mortality of trypanosomes entry in assay [1] (T. brucei brucei, 5 h, data not shown) is “by itself had no effect on the survival of the trypanosomes”. In assay [1], the “effect on trypanocidal activity of TNF-α / tip peptide” value (shortened to “effect … of TNF-α / tip peptide”) was “synergistically potentiates the trypanocidal effect of mTNF-α”.
Regarding `CC(=O)N[C@H]1[C@H](O[C@H]2[C@H](O)[C@@H](NC(C)=O)C(O)O[C@@H]2CO)O[C@H](CO)[C@@H](O)[C@@H]1O` (stereo partly drawn) [N,N'-diacetylchitobiose, reference compound], the “effect on mTNF-α tumoricidal (cytolytic) activity” value (shortened to “effect on mTNF-α tumoricidal”) in the assay on L929 cells (L929 cells) was “not the cytolytic activity; also recorded: not affected”. Besides, the “effect … of TNF-α / tip peptide” value in assay [1] is reported as “potently inhibits the trypanocidal activity; also recorded: potent inhibition of the mTNF-α trypanocidal effect; also recorded: trypanocidal activity of the peptide can also be inhibited”.
Consider “Bio-GG-C - - - - APEGAE - - - - - C (Biotin-GGCAPEGAEC-NH2; cysteine pairing not given here) [mutpep 1]”, for which the trypanocidal activity result in assay [1] (T. brucei brucei) is reported as “lost their trypanocidal activity”.
Consider “Bio-GG-C-TAEGAE-C (Biotin-GGCTAEGAEC-NH2; cysteine pairing not given here) [mutpep 2]”, for which the trypanocidal activity result in assay [1] (T. brucei brucei) is “fully or even more active”.
Same read-out and setting: to “Bio-GG-C-TPAGAE-C (Biotin-GGCTPAGAEC-NH2; cysteine pairing not given here) [mutpep 3]” belongs “lost their trypanocidal activity”; to “Bio-GG-C-TPEAAE-C (Biotin-GGCTPEAAEC-NH2; cysteine pairing not given here) [mutpep 4]”, “fully or even more active”.
Same read-out and setting: to “Bio-GG-C-TPEGAA-C (Biotin-GGCTPEGAAC-NH2; cysteine pairing not given here) [mutpep 5]” belongs “lost their trypanocidal activity”.
Take “Bio-GG-C-TPEGAE-C (Biotin-GGCTPEGAEC-NH2; cysteine pairing not given here) [subpep 1]”: the trypanocidal activity result in assay [1] (T. brucei brucei) is recorded as “full trypanocidal activity”.
In the case of “Bio-GG-CGPKDTPEGAELKPWYC (Biotin-GGCGPKDTPEGAELKPWYC-NH2; disulfide 3-19 (inferred)) [mTNFα-tip]”, the “tumoricidal activity of tip peptide” value in the assay on L929 cells (L929 cells, similar dose response curve, data not shown) is “exerts no tumoricidal activity”. Moreover, the trypanocidal activity entry in assay [1] (T. brucei brucei) was “shows a trypanocidal activity”. Further, the trypanocidal specific activity in assay [1] (in vitro trypanocidal assay, average specificity) is reported as 4×10^2 -4×10^3 U/mg of peptide.
Bio-GG-CGQRETPEGAEAKPWYC [hTNFα-tip]: the trypanocidal activity entry in assay [1] (T. brucei brucei) is “shows similar results”.
For the molecule Bio-GG-EGAELKPWY [subpep 2], the trypanocidal activity entry in assay [1] (T. brucei brucei) was “strongly reduced trypanocidal activity”.
Turning to “GNA: lectin Galanthus nivalis agglutinin [reference compound]”, the “effect on mTNF-α tumoricidal” value in the assay with L929 cells (L929 cells) is recorded as “none of these lectins had any effect”. In addition, the “% inhibition of trypanocidal activity” value is 5 ± 3% in assay [1] (mTNF-α 1.000 pg/ml); 5 ± 2% in assay [1] (mTNF-α 10.000 pg/ml); 0 ± 1% in assay [1] (mTNF-α 100 pg/ml); 3 ± 2% in assay [1] (mTNF-α 100.000 pg/ml); 2 ± 1% in assay [1] (mTNF-α 1.000.000 pg/ml). Further, the “effect … of TNF-α / tip peptide” value in assay [1] was “did not have any effect”.

B1: soluble p55 hTNF-α receptor: soluble p55 hTNF-α receptor protein (protein)
chain: DSVCPQGKYIHPQNNSICCTKCHKGTYLYNDCPGPGQDTDCRECESGSFTASENHLRHCLSCSKCRKEMGQVEISSCTVDRDTVCGCRKNQYRHYWSENLFQCFNCSLCLNGTVHLSCQEKQNTVCTCHAGFFLRENECVSCSNCKKSLECTKLCLPQIEN
Take B1: the “Δ: % inhibition of tumoricidal activity by the addition of the p55 hTNFα receptor protein” value with L929 cells (mTNF-α 100 pg/ml) was found to be 100 ± 5%; with L929 cells (mTNF-α 1000 pg/ml), 100 ± 4%; in the assay with L929 cells (mTNF-α 10000 pg/ml), 5 ± 2%. Besides, the “effect on mTNF-α tumoricidal” value in the assay with L929 cells (L929 cells) was “potently inhibits the mTNF-α tumoricidal activity”. In addition, the “Δ: % inhibition of trypanocidal activity by the addition of the p55 hTNFα receptor protein” value in assay [1] (mTNF-α 100 pg/ml) is given as 15 ± 5%; in assay [1] (mTNF-α 1000 pg/ml), 10 ± 4%; in assay [1] (mTNF-α 10000 pg/ml) it was 7 ± 5%. Also, the “effect … of TNF-α / tip peptide” value in assay [1] is listed as “hardly influenced”.

B2: P106A mTNF-α: Pro106 of mTNF-α is changed to an Ala residue (protein)
chain: LRSSSQNSSDKPVAHVVANHQVEEQLEWLSQRANALLANGMDLKDNQLVVPADGLYLVYSQVLFKGQGCPDYVLLTHTVSRFAISYQEKVNLLSAVKSPCPKDTAEGAELKPWYEPIYLGGVFQLEKGDQLSAEVNLPKYLDFAESGQVYFGVIAL
In the case of B2, the IL6 concentration in assay [2] (333 pg/ml, experiment 1) came to 720 pg/mL; in assay [2] (333 pg/ml, experiment 2) it was 1300 pg/mL; in assay [2] (1000 pg/ml, experiment 1), 560 pg/mL; in assay [2] (1000 pg/ml, experiment 2) it was 750 pg/mL; in assay [2] (1666 pg/ml, experiment 1), 800 pg/mL; in assay [2] (1666 pg/ml, experiment 2) it was 1300 pg/mL. The IL8 concentration in assay [3] (333 pg/ml, experiment 1, 24 hours) amounted to 300 pg/mL; in assay [3] (333 pg/ml, experiment 2, 24 hours), 400 pg/mL; in assay [3] (1000 pg/ml, experiment 1, 24 hours), 1100 pg/mL; in assay [3] (1000 pg/ml, experiment 2, 24 hours), 1500 pg/mL; in assay [3] (1666 pg/ml, experiment 1, 24 hours), 250 pg/mL; in assay [3] (1666 pg/ml, experiment 2, 24 hours), 900 pg/mL. In addition, the “fold less IL8 induced than wild type TNF-α” value in assay [3] (hMVECb, 24 hours) is recorded as “about 3 fold”. In assay [3] (human endothelial brain cells), the “IL8 induction compared with wild type” value is reported as “induce consistently less human interleukin 8 (IL8)”.

Values taken from patent US5891679A, “TNF-alpha muteins and a process for preparing them” (priority 1993, dated 1999).
